Test results taken from patent US20070117743A1, “New antitumoral compounds” (priority 2003, published 2007).
Where a SMILES comes first, the peptide text is derived from it. Bridges are numbered along the chain shown (N, C = ends). [ ]: non-standard residue; d: D form. The star is where a group is joined. d(aIle) = CC[C@H](C)[C@@H](N)C(=O)O; d(aThr) = C[C@@H](O)[C@@H](N)C(=O)O; Hexanoyl(5-Me) = CC(C)CCCC(=O)*; Orn = NCCC[C@H](N)C(=O)O; Dhb = C/C=C(\N)C(=O)O

Legend:
Type in all cases: cell-based, human
SK-MEL-28 = assay: SRB colorimetric assay of cell growth and viability, SK-MEL-28; settings: 48 hours exposure; for CC50: read-out: LC50 MEL-28
PANC-1 = assay: SRB colorimetric assay of cell growth and viability, PANC-1; settings: 48 hours exposure; for CC50: read-out: LC50 PANC-1
SK-BR-3 = assay: SRB colorimetric assay of cell growth and viability, SK-BR-3; settings: 48 hours exposure
IGROV-ET = assay: SRB colorimetric assay of cell growth and viability, IGROV-ET; settings: 48 hours exposure; for CC50: read-out: LC50 IGROV-ET
HeLa-APL = assay: SRB colorimetric assay of cell growth and viability, HeLa-APL; settings: 48 hours exposure; for CC50: read-out: LC50 HELA-APL
A-549 = assay: SRB colorimetric assay of cell growth and viability, A-549; settings: 48 hours exposure; for GI50: read-out: GI50 A-549; for CC50: read-out: LC50 A-549
IGROV-1 = assay: SRB colorimetric assay of cell growth and viability, IGROV-1; settings: 48 hours exposure
HeLa = assay: SRB colorimetric assay of cell growth and viability, HeLa; settings: 48 hours exposure; for CC50: read-out: LC50 HELA
DU-145 = assay: SRB colorimetric assay of cell growth and viability, DU-145; settings: 48 hours exposure
K-562 = assay: SRB colorimetric assay of cell growth and viability, K-562; settings: 48 hours exposure; for CC50: read-out: LC50 K-562
LNCaP = assay: SRB colorimetric assay of cell growth and viability, LNCaP; settings: 48 hours exposure; for GI50: read-out: GI50 LN-caP; for CC50: read-out: LC50 LN-caP
HT-29 = assay: SRB colorimetric assay of cell growth and viability, HT-29; settings: 48 hours exposure; for GI50: read-out: GI50 HT-29; for CC50: read-out: LC50 HT-29
LoVo = assay: SRB colorimetric assay of cell growth and viability, LoVo; settings: 48 hours exposure; for CC50: read-out: LC50 LOVO

SMILES	GI50 (SK-MEL-28) [µM]	TGI MEL-28 (SK-MEL-28) [Molar]	CC50 (SK-MEL-28) [µM]	GI50 (PANC-1) [µM]	TGI PANC-1 (PANC-1) [Molar]	CC50 (PANC-1) [µM]	GI50 (SK-BR-3) [µM]	LC50 (SK-BR-3) [µM]	TGI SK-BR-3 (SK-BR-3) [Molar]	GI50 (IGROV-ET) [µM]	TGI IGROV-ET (IGROV-ET) [Molar]	CC50 (IGROV-ET) [µM]	GI50 (HeLa-APL) [µM]	TGI HELA-APL (HeLa-APL) [Molar]	CC50 (HeLa-APL) [µM]	TGI A-549 (A-549) [Molar]	GI50 (A-549) [µM]	CC50 (A-549) [µM]	GI50 (IGROV-1) [µM]	LC50 (concentration causing 50% net cell killing) (IGROV-1) [µM]	further results
C/C=C1\NC(=O)[C@H](Cc2ccccc2)NC(=O)[C@@H](C(C)C)NC(=O)[C@@H]([C@@H](C)CC)NC(=O)[C@H](NC(=O)[C@H](NC(=O)[C@H](CCCN)NC(=O)[C@H]2CCCN2C(=O)[C@H](NC(=O)[C@@H](NC(=O)[C@@H](NC(=O)[C@H](NC(=O)c2ccc(C(F)(F)F)cc2)C(C)C)[C@@H](C)O)C(C)C)C(C)C)[C@@H](C)CC)[C@@H](C)OC(=O)[C@H](C(C)C)NC1=O [Compound 21, [p-CF3Bza^14]-KF]	0.897	1.85E−06	3.8	1.3	3.11E−06	6.5	0.111	0.543	2.46E−07	0.169	7.61E−07	2.83	0.504	1.48E−06	3.67	4.06E−07	0.146	1.68	0.177	3.45	TGI IGROV (IGROV-1): 7.22E−07 Molar; GI50 (HeLa): 0.319 µM; TGI HELA (HeLa): 1.28E−06 Molar; CC50 (HeLa): 3.91 µM; GI50 (DU-145): 0.241 µM; LC50 (concentration causing 50% net cell kill) (DU-145): 3.28 µM; TGI DU-145 (DU-145): 1.22E−06 Molar; GI50 (K-562): 6.5 µM; TGI K-562 (K-562): 6.50E−06 Molar; CC50 (K-562): 6.5 µM; TGI LN-caP (LNCaP): 1.30E−06 Molar; GI50 (LNCaP): 0.339 µM; CC50 (LNCaP): 3.52 µM; TGI HT-29 (HT-29): 2.59E−07 Molar; GI50 (HT-29): 0.114 µM; CC50 (HT-29): 0.585 µM; GI50 (LoVo): 0.0917 µM; TGI LOVO (LoVo): 1.92E−07 Molar; CC50 (LoVo): 0.404 µM
C/C=C1\NC(=O)[C@H](Cc2ccccc2)NC(=O)[C@@H](C(C)C)NC(=O)[C@@H]([C@@H](C)CC)NC(=O)[C@H](NC(=O)[C@H](NC(=O)[C@H](CCCN)NC(=O)[C@H]2CCCN2C(=O)[C@H](NC(=O)[C@@H](NC(=O)[C@@H](NC(=O)[C@H](NC(=O)Cc2cc(F)cc(F)c2)C(C)C)[C@@H](C)O)C(C)C)C(C)C)[C@@H](C)CC)[C@@H](C)OC(=O)[C@H](C(C)C)NC1=O [Compound 22, [3,5-dFPhAc^14]-KF]	2.5	6.58E−06	6.58	5.45	6.58E−06	6.58	0.464	3.64	1.45E−06	1.07	2.32E−06	5.01	1.96	6.58E−06	6.58	2.16E−06	1.17	3.99	0.98	4.57	TGI IGROV (IGROV-1): 2.12E−06 Molar; GI50 (HeLa): 1.29 µM; TGI HELA (HeLa): 3.28E−06 Molar; CC50 (HeLa): 6.58 µM; GI50 (DU-145): 1.43 µM; LC50 (concentration causing 50% net cell kill) (DU-145): 6.58 µM; TGI DU-145 (DU-145): 6.58E−06 Molar; GI50 (K-562): 6.58 µM; TGI K-562 (K-562): 6.58E−06 Molar; CC50 (K-562): 6.58 µM; TGI LN-caP (LNCaP): 6.58E−06 Molar; GI50 (LNCaP): 1.64 µM; CC50 (LNCaP): 6.58 µM; TGI HT-29 (HT-29): 1.94E−06 Molar; GI50 (HT-29): 0.888 µM; CC50 (HT-29): 4.25 µM; GI50 (LoVo): 0.288 µM; TGI LOVO (LoVo): 1.06E−06 Molar; CC50 (LoVo): 3.11 µM
C/C=C1\NC(=O)[C@H](Cc2ccccc2)NC(=O)[C@@H](C(C)C)NC(=O)[C@@H]([C@@H](C)CC)NC(=O)[C@H](NC(=O)[C@H](NC(=O)[C@H](CCCN)NC(=O)[C@H]2CCCN2C(=O)[C@H](NC(=O)[C@@H](NC(=O)[C@@H](NC(=O)[C@H](NC(=O)CCCNC(=N)N)C(C)C)[C@@H](C)O)C(C)C)C(C)C)[C@@H](C)CC)[C@@H](C)OC(=O)[C@H](C(C)C)NC1=O [Compound 29, [4-GuBut^14]-KF]	6.7	6.70E−06	6.7	6.7	6.70E−06	6.7	6.7	6.7	6.70E−06	6.7	6.70E−06	6.7	6.7	6.70E−06	6.7	6.70E−06	6.7	6.7	6.7	6.7	TGI IGROV (IGROV-1): 6.70E−06 Molar; GI50 (HeLa): 6.7 µM; TGI HELA (HeLa): 6.70E−06 Molar; CC50 (HeLa): 6.7 µM; GI50 (DU-145): 6.7 µM; LC50 (concentration causing 50% net cell kill) (DU-145): 6.7 µM; TGI DU-145 (DU-145): 6.70E−06 Molar; GI50 (K-562): 6.7 µM; TGI K-562 (K-562): 6.70E−06 Molar; CC50 (K-562): 6.7 µM; TGI LN-caP (LNCaP): 6.70E−06 Molar; GI50 (LNCaP): 3.91 µM; CC50 (LNCaP): 6.7 µM; TGI HT-29 (HT-29): 6.70E−06 Molar; GI50 (HT-29): 6.7 µM; CC50 (HT-29): 6.7 µM; GI50 (LoVo): 5.45 µM; TGI LOVO (LoVo): 6.70E−06 Molar; CC50 (LoVo): 6.7 µM
C/C=C1\NC(=O)[C@H](Cc2ccccc2)NC(=O)[C@@H](C(C)C)NC(=O)[C@@H]([C@@H](C)CC)NC(=O)[C@H](NC(=O)[C@H](NC(=O)[C@H](CCCN)NC(=O)[C@H]2CCCN2C(=O)[C@H](NC(=O)CNC(=O)[C@@H](NC(=O)[C@H](NC(=O)CCCC(C)C)C(C)C)[C@@H](C)O)C(C)C)[C@@H](C)CC)[C@@H](C)OC(=O)[C@H](C(C)C)NC1=O [Compound 42, [Gly^11]-KF] ({Hexanoyl(5-Me)}-[dV]TG[dV][dP][Orn][d(aIle)][d(aThr)][d(aIle)][dV]F[Dhb]V; ester 8-C)	6.96	6.96E−06	6.96	5.08	6.96E−06	6.96	6.96	6.96	6.96E−06	6.96	6.96E−06	6.96	6.96	6.96E−06	6.96	6.96E−06	6.96	6.96	4.61	6.96	TGI IGROV (IGROV-1): 6.96E−06 Molar; GI50 (HeLa): 6.96 µM; TGI HELA (HeLa): 6.96E−06 Molar; CC50 (HeLa): 6.96 µM; GI50 (DU-145): 6.96 µM; LC50 (concentration causing 50% net cell kill) (DU-145): 6.96 µM; TGI DU-145 (DU-145): 6.96E−06 Molar; GI50 (K-562): 1.82 µM; TGI K-562 (K-562): 4.37E−06 Molar; CC50 (K-562): 6.96 µM; TGI LN-caP (LNCaP): 6.96E−06 Molar; GI50 (LNCaP): 3.03 µM; CC50 (LNCaP): 6.96 µM; TGI HT-29 (HT-29): 6.96E−06 Molar; GI50 (HT-29): 6.96 µM; CC50 (HT-29): 6.96 µM; GI50 (LoVo): 3.87 µM; TGI LOVO (LoVo): 6.96E−06 Molar; CC50 (LoVo): 6.96 µM
C/C=C1\NC(=O)[C@H](Cc2ccccc2)NC(=O)[C@@H](C(C)C)NC(=O)[C@@H]([C@@H](C)CC)NC(=O)[C@H](NC(=O)[C@H](NC(=O)[C@H](CCCN)NC(=O)[C@H]2CCCN2C(=O)[C@H](NC(=O)[C@H](Cc2ccccc2)NC(=O)[C@@H](NC(=O)[C@H](NC(=O)CCCC(C)C)C(C)C)[C@@H](C)O)C(C)C)[C@@H](C)CC)[C@@H](C)OC(=O)[C@H](C(C)C)NC1=O [Compound 43, [Phe^11]-KF] ({Hexanoyl(5-Me)}-[dV]TF[dV][dP][Orn][d(aIle)][d(aThr)][d(aIle)][dV]F[Dhb]V; ester 8-C)	0.78	1.66E−06	3.57	1.79	4.86E−06	6.55	0.119	0.634	2.75E−07	0.233	6.28E−07	2.53	0.793	1.77E−06	3.93	1.40E−06	0.521	3.41	0.241	3.68	TGI IGROV (IGROV-1): 7.67E−07 Molar; GI50 (HeLa): 0.397 µM; TGI HELA (HeLa): 1.32E−06 Molar; CC50 (HeLa): 3.95 µM; GI50 (DU-145): 0.476 µM; LC50 (concentration causing 50% net cell kill) (DU-145): 3.22 µM; TGI DU-145 (DU-145): 1.34E−06 Molar; GI50 (K-562): 1.23 µM; TGI K-562 (K-562): 2.18E−06 Molar; CC50 (K-562): 3.85 µM; TGI LN-caP (LNCaP): 1.97E−06 Molar; GI50 (LNCaP): 0.852 µM; CC50 (LNCaP): 4.55 µM; TGI HT-29 (HT-29): 2.73E−07 Molar; GI50 (HT-29): 0.141 µM; CC50 (HT-29): 0.531 µM; GI50 (LoVo): 0.105 µM; TGI LOVO (LoVo): 2.22E−07 Molar; CC50 (LoVo): 0.471 µM
